We go through 27 compounds from patent US7799776B2, “Indoleamine 2,3-dioxygenase (IDO) inhibitors” (The University of British Columbia, priority 2004, dated 2010).

Like-named read-outs stand apart in the source and are kept apart here.

For one experiment, the target named is recombinant human IDO (Homo sapiens, UniProt P14902). The experiment can be described thus: IDO inhibition kinetics (N-formylkynurenine formation, absorbance at 321 nm). The conditions noted are these: for manner of IDO inhibition: assay repeated using differing concentrations. Type of experiment: biochemical. The protocol: The following reaction (Sono, M., Cady, S. G. Biochemistry 28, 5392-5399 (1989)) was used to measure the kinetics of inhibition of IDO using compounds of this invention as well as other compounds for comparison, as listed in Table 4.
A solution of 0.1M potassium phosphate buffer (pH 6.5; optimal at 37° C.), 25 μM methylene blue, 200 μg/ml of catalase, 10 mM ascorbic acid, 50 nM of recombinant human IDO and 100 μM L-Tryptophan was prepared. The rate of product formation (Δε321=3.75 mM^−1 cm^−1 for N-formylkynurenine) was determined from the slope of the initial linear absorbance increase at 321 nm as a function of time.

Another experiment has as its target purified, human IDO (Homo sapiens, UniProt P14902). The experiment can be described thus: In vitro IDO activity assay (kynurenine adduct detected at 480 nm) used for bioassay guided fractionation. Type of experiment: biochemical. The following applies: extracts and compounds identified by bioassay guided fractionation. The protocol:
Various in vitro assays (see for example Takikawa, et al. J. Biol. Chem. 263, 2041-2048 (1988)) may be used to screen (e.g. high-throughput screening) or test reaction products or extracts obtained natural sources for IDO inhibition activity or to determine the kinetics of IDO inhibition. For example, IDO activity may be assayed by means of a reaction mixture (100 microlitre total volume) containing potassium phosphate buffer (50 mM, pH 6.5), ascorbic acid (20 mM), catalase (200 microgram/mL), methylene blue ([…]), L-tryptophan ([…]), and purified, human IDO. The reaction shown below may be allowed to proceed for 40 min (37° C.) and stopped by the addition of 20 microlitre of 30% (w/v) trichloroacetic acid. The N-formyl kynurenine formed from tryptophan in the reaction mixture during this time is then converted to kynurenine by incubating the reaction mixture at 65° C. for 15 minutes. After cooling the reaction mixture to room temperature, an equal volume of 2% (w/v) p-dimethylamino benzaldehyde in acetic acid may be added to convert the kynurenine present in the reaction mixture to a yellow adduct that can be detected at 480 nm. A standard curve for this latter reaction may be constructed with the use of standard solutions prepared from authentic L-kynurenine. Protein concentration may be determined by the Coomassie blue dye-binding method of Bradford with bovine serum albumin as a standard. (Takikawa et al, J. Biol. Chem. 263, 2041-2048).
Crude extracts from the marine hydroid Garveia annula collected in British Columbia and the sponge Xestospongia sp. collected in Papua New Guinea show activity in the aforementioned assay. […] Annulins A and B, garveatins A and C, and 2-hydroxygarvin A have been previously reported (Fahy et al J. Org. Chem., (1985), 50, 1149-50; J. Org. Chem., (1986), 51, 57-61; J. Org. Chem., (1986), 51, 5145-48; Can. J. Chem., (1987), 65, 376-83), but were not known to be IDO inhibitors. Annulin C, Garvalone C and garveatins E and F are novel. […] Xestoquinone, adociaquinone A, and adociaquinone B had been previously isolated from sponge extracts and their structures have been reported in the literature (Schmitz and Bloor J. Org. Chem. (1988), 53, 3922-3925), but were not known as IDO inhibitors.

A further experiment addresses IDO (Oryctolagus cuniculus, UniProt G1SJI2). The conditions noted are these: tryptophan (substrate) analogues; Sono and Cady 1989, Cady and Sono 1991; cited from earlier work.
[1] abbreviates: 50 nM recombinant human IDO, 100 μM L-Tryptophan, pH 6.5, read-out: Ki.

Chain of recombinant human IDO (P14902 whole entry): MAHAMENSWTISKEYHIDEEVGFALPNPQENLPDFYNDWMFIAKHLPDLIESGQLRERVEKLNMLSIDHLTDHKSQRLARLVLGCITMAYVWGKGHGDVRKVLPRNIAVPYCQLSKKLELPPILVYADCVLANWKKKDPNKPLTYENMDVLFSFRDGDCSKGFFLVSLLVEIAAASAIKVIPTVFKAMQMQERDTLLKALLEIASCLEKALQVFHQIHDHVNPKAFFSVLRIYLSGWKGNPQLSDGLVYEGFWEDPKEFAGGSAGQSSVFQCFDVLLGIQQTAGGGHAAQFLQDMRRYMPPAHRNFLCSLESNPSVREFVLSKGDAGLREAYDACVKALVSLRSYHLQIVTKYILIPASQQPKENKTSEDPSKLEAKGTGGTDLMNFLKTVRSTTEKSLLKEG
Chain of purified, human IDO (P14902 whole entry): as above
Chain of IDO (G1SJI2 1-402): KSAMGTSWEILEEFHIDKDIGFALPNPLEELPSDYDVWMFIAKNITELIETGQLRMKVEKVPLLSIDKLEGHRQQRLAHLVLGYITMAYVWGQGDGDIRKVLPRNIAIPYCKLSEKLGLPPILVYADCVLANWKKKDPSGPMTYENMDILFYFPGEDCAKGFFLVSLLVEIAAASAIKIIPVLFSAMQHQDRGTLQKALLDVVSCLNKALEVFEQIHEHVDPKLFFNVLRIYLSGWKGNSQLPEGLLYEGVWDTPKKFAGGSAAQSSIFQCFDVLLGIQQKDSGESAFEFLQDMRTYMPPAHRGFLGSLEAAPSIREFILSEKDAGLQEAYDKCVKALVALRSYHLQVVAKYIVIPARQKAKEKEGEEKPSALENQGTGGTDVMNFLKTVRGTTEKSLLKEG

For `CC12CCCc3coc(c31)C(=O)c1cc3c(cc12)C(=O)C1=C(C3=O)S(=O)(=O)CCN1` (centres unmarked) [Adociaquinone A], the Ki on recombinant human IDO (setting [1]) stood at 0.086 µM. In addition, at purified, human IDO, the “IDO inhibition activity (qualitative)” value is “active IDO inhibitors”. On to `CCc1c(C)cc2c(c1O)C(=O)C1=C(C2=O)C(C)(C)OC1(OC)C(=O)OC` (centres unmarked) [Annulin C], for which the Ki on recombinant human IDO (setting [1]) was 0.144 µM. The “manner of IDO inhibition” value at recombinant human IDO is reported as “non-competitive”. Also, the “IDO inhibition activity (qualitative)” value on purified, human IDO is reported as “active IDO inhibitors”. As for `CC(=O)c1c(C)cc2cc3c(c(O)c2c1O)C(=O)C(C)=C(O)C3(C)C` [Garveatin A], the inhibition constant Ki on recombinant human IDO (setting [1]) was 3.2 µM. Further, at purified, human IDO, the “IDO inhibition activity (qualitative)” value is listed as “active IDO inhibitors”. For the compound `O=C1c2ccccc2C(=O)c2c1ccc(O)c2O` [Alizarin, reference compound], the Ki at recombinant human IDO (setting [1]) came to 42 µM. Turning to `CCC1=C(C)C(=O)c2cc3c(c(O)c2C1=O)C(=O)C(C)=C(O)C3(C)C` [Garveatin E], the Ki at recombinant human IDO (setting [1]) was 3.1 µM. On purified, human IDO, the “IDO inhibition activity (qualitative)” value is given as “active IDO inhibitors”. `O=C1C=Cc2ccccc2C1=O` [1,2 naphthoquinone, reference compound]: at recombinant human IDO (setting [1]), the Ki turned out to be 3.4 µM. Take `CCc1c(C)cc2c(c1O)C(=O)C1=C(C2=O)C(C)(C)OC1(O)C(=O)OC` (centres unmarked) [Annulin A]: the Ki on recombinant human IDO (setting [1]) was 0.694 µM. Also, the “IDO inhibition activity (qualitative)” value on purified, human IDO is “active IDO inhibitors”.

For the compound `Cn1cc(C[C@H](N)C(=O)O)c2ccccc21` [1-methyl-L-tryptophan (1MT), 1-methyl-L-tryptophan], the “manner of IDO inhibition” value on IDO is recorded as “competitive inhibitors”.

As to `CC(=O)CC(c1ccccc1)c1c(O)c2ccccc2oc1=O` (centres unmarked) [Warfarin, reference compound], the Ki on recombinant human IDO (setting [1]) is greater than 32 µM. Consider `CC1=CC(=O)c2ccccc2C1=O` [Menadione (Vitamin K3), Menadione, reference compound], for which the Ki at recombinant human IDO (setting [1]) amounted to 0.58 µM. For the same compound, the “manner of IDO inhibition” value at recombinant human IDO is listed as “non-competitive”. Further, the “IDO inhibition activity (qualitative)” value at purified, human IDO is listed as “shown to be an IDO inhibitor”. Regarding `CC1=C(C/C=C(\C)CCC[C@H](C)CCC[C@H](C)CCCC(C)C)C(=O)c2ccccc2C1=O` [Vitamin K1, reference compound], the Ki on recombinant human IDO (setting [1]) is greater than 40 µM. On the same count and under the same terms, under `Oc1ccc(O)cc1` [Dihydroquinone, reference compound] stands greater than 5000 µM.

In the case of `CCc1c(C)cc2c(c1O)C(=O)C1=C(C2=O)C(C)(C)C(=O)C(C)(C(=O)OC)O1` (centres unmarked) [Annulin B], the Ki on recombinant human IDO (setting [1]) came out at 0.123 µM. The “IDO inhibition activity (qualitative)” value at purified, human IDO is given as “active IDO inhibitors”. In the same order, the values of `CCc1c(C)cc2cc3c(c(O)c2c1O)C(=O)C(C)(O)C(=O)C3(C)C` (centres unmarked) [Garveatin F] are 1.42 µM and “active IDO inhibitors”. In the same order, the values of `COc1c(C(C)=O)c(C)cc2cc3c(c(O)c12)C(=O)C(C)(C)C(=O)C3(C)C` [Garveatin C] are 1.18 µM and “active IDO inhibitors”. On to `O=C1C=C(O)C(=O)c2ccccc21`, for which the Ki at recombinant human IDO (setting [1]) worked out at 100 µM. `CC12CCCc3coc(c31)C(=O)c1cc3c(cc12)C(=O)C=CC3=O` (centres unmarked) [Xestoquinone]: the Ki at recombinant human IDO (setting [1]) is 0.181 µM. In addition, on purified, human IDO, the “IDO inhibition activity (qualitative)” value was “active IDO inhibitors”. In the same order, the values of `CCCc1c(C(=O)OC)c(OC)cc2cc3c(c(O)c12)C(=O)C(C)(O)C(=O)C3(C)C` (centres unmarked) [2-Hydroxygarvin A] are 2.3 µM and “active IDO inhibitors”. Take `COC(=O)c1c(C)cc2cc3c(c(O)c2c1OC)C(=O)C(C)(CC(C)=O)C(=O)C3(C)C` (centres unmarked) [Garvalone C]: the Ki on recombinant human IDO (setting [1]) came to 1.25 µM. Turning to `CC12CCCc3coc(c31)C(=O)c1cc3c(cc12)C(=O)C1=C(NCCS1(=O)=O)C3=O` (centres unmarked) [Adociaquinone B], the Ki on recombinant human IDO (setting [1]) was determined as 0.025 µM. For the same compound, on purified, human IDO, the “IDO inhibition activity (qualitative)” value was “active IDO inhibitors”.

As to `O=c1ccc2ccccc2o1` [Coumarin, reference compound], at recombinant human IDO (setting [1]), the Ki was found to be 1110 µM. Consider Doxorubicin [reference compound], for which, at recombinant human IDO (setting [1]), the Ki was 46000 µM. For the compound `COC1=CC(=O)c2ccccc2C1=O`, the Ki at recombinant human IDO (setting [1]) was found to be 0.53 µM.

In the case of `O=C1C(Cl)=C(Cl)C(=O)c2ccccc21` [Dichlone, reference compound], the Ki on recombinant human IDO was 0.045 µM. `O=C1C=CC(=O)c2c(O)cccc21` [Juglone, reference compound]: at recombinant human IDO (setting [1]), the Ki is 0.048 µM. Still for that read-out and setting: under `CC1Cc2c(c(O)cc3cc4c(c(O)c23)OC(C)(C)C4(C)C)C(=O)O1` (centres unmarked) [Garvin C] stands roughly 2100 µM.

Regarding `NC(Cc1coc2ccccc12)C(=O)O` (racemic) [beta-(3-benzofuranyl)-DL-alanine], on IDO, the “manner of IDO inhibition” value was “competitive inhibitors”.

The term Ki denotes a measure of affinity in units of concentration, obtained from inhibition or displacement.
